# Assay results as given in patent US20220160647A1, “TRANSDERMAL DRUG DELIVERY DEVICE/TRANSDERMAL PATCH AND OTHER APPLICATIONS OF EMULSION FORMULATION” (First Necessity, LLC, priority 2020, published 2022).
# Assays:
# [1] = accepted value (Samara and Bialer 1988); cited from earlier work
# [2] = Solubility of CBD in water, MCT oil and the liposomal polymeric emulsion; assay type: physicochemical
# Text: (E. Samara and M. Bialer, Drug Metab. Dispos., 16 (6) 875-879 (1988). This provides a maximum weight/weight percent of approximately 0.07%.
# In certain embodiments of the present teaching, hyaluronic acid may be present in the polymeric-emulsion disclosed herein. Such embodiments also include the presence of water. […] In the present case, this value was slightly exceeded in testing the liposomal polymeric emulsion set forth herein in combination with hyaluronic acid, water and MCT as the hydrophobic component. […] That said, the polymeric liposomal emulsion set forth herein retains the ability to dissolve water soluble compounds even when incorporating oil-soluble compounds at a relatively high percentage or amount.
# [3] = liposomal polymeric emulsion with hyaluronic acid, water and MCT
smiles,measurement,setting,value
"C=C(C)[C@@H]1CCC(C)=C[C@H]1c1c(O)cc(CCCCC)cc1O [CBD, cannabidiol]",solubility of CBD in pure water,[1],0.7 μg per mL
same,concentration of CBD in stable solution,[2]; MCT oil,400000 µg/mL
same,"concentration of CBD in stable solution, by weight",[2]; MCT oil,40 % by weight
same,increase in CBD solubility compared to base MCT oil,[2]; liposomal polymeric emulsion vs base MCT oil,1.125 fold
same,increase in CBD solubility compared to water,[2]; liposomal polymeric emulsion vs water,greater than 500 fold
same,concentration of CBD in solution,[2]; [3],450000 µg/mL
same,"concentration of CBD in solution, by weight",[2]; [3],45 % by weight
same,maximum weight/weight percent of CBD in water,"[2]; pure water, worked out from 0.7 μg per mL",approximately 0.07%
